From ChEMBL document CHEMBL1201862, “PubChem BioAssay data set” (2004)
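Compound exposure: 48 hours, 5 concentrations, 96-well plates. GI50 = concentration required for 50% inhibition of growth.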 The source made the active and inactive calls. Rule as the data show it: active = GI50 up to about 1.1 µM and inactive = higher.

Tests used:
Test in all cases: NCI-60 cell line screen, 48 h
HCT-116 = tested on: HCT-116
SF-539 = tested on: SF-539
HCT-15 = tested on: HCT-15
NCI-H23 = tested on: NCI-H23
HCC 2998 = tested on: HCC 2998
SNB-75 = tested on: SNB-75
OVCAR-8 = tested on: OVCAR-8
SR = tested on: SR
SF-295 = tested on: SF-295
SK-MEL-28 = tested on: SK-MEL-28
M14 = tested on: M14
ACHN = tested on: ACHN
RXF 393 = tested on: RXF 393
SK-MEL-5 = tested on: SK-MEL-5
SF-268 = tested on: SF-268
UACC-257 = tested on: UACC-257

| SMILES | GI50 (HCT-116) | GI50 (SF-539) | GI50 (HCT-15) [µM] | GI50 (NCI-H23) | GI50 (HCC 2998) | GI50 (SNB-75) | GI50 (OVCAR-8) | GI50 (SR) | GI50 (SF-295) | GI50 (SK-MEL-28) | GI50 (M14) | GI50 (ACHN) | GI50 (RXF 393) | GI50 (SK-MEL-5) | GI50 (SF-268) | GI50 (UACC-257) |
| --- | --- | --- | --- | --- | --- | --- | --- | --- | --- | --- | --- | --- | --- | --- | --- | --- |
| CCCN1C(=O)C/C(=C\C(C)=O)Nc2ccccc21 | > 100 µM (inactive) | > 100 µM (inactive) | > 100 | > 100 µM (inactive) | > 100 µM (inactive) | > 100 µM (inactive) | > 100 µM (inactive) | > 100 µM (inactive) | > 100 µM (inactive) | > 100 µM (inactive) | > 100 µM (inactive) | > 100 µM (inactive) | > 100 µM (inactive) | > 100 µM (inactive) | > 100 µM (inactive) | – |
| O=c1cc2ccccc2nn1-c1ccccc1Cl | 74.5 µM (inactive) | > 100 µM (inactive) | 92.5 | 67.9 µM (inactive) | > 100 µM (inactive) | 59.6 µM (inactive) | > 100 µM (inactive) | – | > 100 µM (inactive) | > 100 µM (inactive) | > 100 µM (inactive) | > 100 µM (inactive) | – | 69 µM (inactive) | 85.7 µM (inactive) | > 100 µM (inactive) |
| O=c1cccccc1NCCCCCCCCNc1cccccc1=O | 9.62 µM (inactive) | > 100 µM (inactive) | > 100 | 6.78 µM (inactive) | > 100 µM (inactive) | 32.4 µM (inactive) | > 100 µM (inactive) | 17.8 µM (inactive) | 18.8 µM (inactive) | – | > 100 µM (inactive) | 3.33 µM (inactive) | > 100 µM (inactive) | – | > 100 µM (inactive) | > 100 µM (inactive) |
| N=S(=O)(c1ccccc1)c1ccccc1[N+](=O)[O-] (stereo unspecified) | > 100 µM (inactive) | > 100 µM (inactive) | > 100 | > 100 µM (inactive) | > 100 µM (inactive) | > 100 µM (inactive) | > 100 µM (inactive) | > 100 µM (inactive) | > 100 µM (inactive) | – | > 100 µM (inactive) | > 100 µM (inactive) | > 100 µM (inactive) | > 100 µM (inactive) | – | > 100 µM (inactive) |
| CN(C)CCCNc1ccnc2c([N+](=O)[O-])cccc12 | 15.3 µM (inactive) | 20.7 µM (inactive) | 22.2 | 14.6 µM (inactive) | 13.6 µM (inactive) | – | 20.7 µM (inactive) | 27.9 µM (inactive) | 20.9 µM (inactive) | 95.7 µM (inactive) | 29.2 µM (inactive) | 31.1 µM (inactive) | – | – | 19.1 µM (inactive) | 15.5 µM (inactive) |
| O=S(=O)(c1ccccc1)n1cnc(CCc2ccccc2)n1 | > 100 µM (inactive) | > 100 µM (inactive) | > 100 | > 100 µM (inactive) | – | 45.1 µM (inactive) | > 100 µM (inactive) | > 100 µM (inactive) | > 100 µM (inactive) | > 100 µM (inactive) | > 100 µM (inactive) | > 100 µM (inactive) | > 100 µM (inactive) | > 100 µM (inactive) | > 100 µM (inactive) | > 100 µM (inactive) |
| N=C(N)NS(=O)(=O)c1ccc(Nc2c3ccccc3nc3c(C(=O)Nc4ccc(S(N)(=O)=O)cc4)cccc23)cc1 | > 100 µM (inactive) | 52.5 µM (inactive) | > 100 | > 100 µM (inactive) | 55.5 µM (inactive) | 42.1 µM (inactive) | > 100 µM (inactive) | – | > 100 µM (inactive) | > 100 µM (inactive) | > 100 µM (inactive) | > 100 µM (inactive) | 95.3 µM (inactive) | 78.9 µM (inactive) | 98.9 µM (inactive) | > 100 µM (inactive) |
| O=C(c1ccccc1)c1c(-c2ccccc2)sc2nc3ccccc3nc12 | > 100 µM (inactive) | 47.9 µM (inactive) | > 100 | > 100 µM (inactive) | > 100 µM (inactive) | 32.8 µM (inactive) | > 100 µM (inactive) | – | 52.7 µM (inactive) | > 100 µM (inactive) | > 100 µM (inactive) | > 100 µM (inactive) | 45.4 µM (inactive) | 80.9 µM (inactive) | > 100 µM (inactive) | > 100 µM (inactive) |
| COC1=CC(=O)c2c(cc3c(c2O)-c2c(OC)cc4cc5c(c(O)c4c2OC(=O)CC(C)(O)C3)C(=O)CC(C)(O)C5)C1=O (stereo unspecified) | 2.45 µM (inactive) | 1.57 µM (inactive) | 1.95 | 0.624 µM (active) | 1.24 µM (inactive) | 1.29 µM (inactive) | 1.55 µM (inactive) | 2.02 µM (inactive) | 1.44 µM (inactive) | 1.32 µM (inactive) | 1.25 µM (inactive) | 2.64 µM (inactive) | 2.05 µM (inactive) | 0.237 µM (active) | 2.97 µM (inactive) | 1.76 µM (inactive) |
| Cc1cc(=O)cc2sc3cc(Cl)ccc3nc1-2 | 9.42 µM (inactive) | 7.66 µM (inactive) | 3.95 | 13.7 µM (inactive) | 10.5 µM (inactive) | 3.24 µM (inactive) | 8.99 µM (inactive) | 3.07 µM (inactive) | 6.5 µM (inactive) | 17.8 µM (inactive) | 4.4 µM (inactive) | 6.04 µM (inactive) | 4.76 µM (inactive) | 3.65 µM (inactive) | 6.84 µM (inactive) | 16.9 µM (inactive) |
| Cc1ccc(C(=O)/C=C/c2cccc([N+](=O)[O-])c2)cc1 | 16.6 µM (inactive) | > 58.6 µM (inactive) | 21.6 | > 74.5 µM (inactive) | > 54.7 µM (inactive) | > 47.3 µM (inactive) | 42.9 µM (inactive) | 18.6 µM (inactive) | 55.5 µM (inactive) | > 100 µM (inactive) | 98.6 µM (inactive) | > 100 µM (inactive) | > 43.7 µM (inactive) | > 100 µM (inactive) | > 67.5 µM (inactive) | > 100 µM (inactive) |
| C#Cc1cccc(N2C(=O)c3c(c(-c4ccccc4)c(-c4ccc(Cc5ccc(-c6c(-c7ccccc7)c7c(c(-c8ccccc8)c6-c6ccccc6)C(=O)N(c6cccc(C#C)c6)C7=O)cc5)cc4)c(-c4ccccc4)c3-c3ccccc3)C2=O)c1 | 21 µM (inactive) | 21.2 µM (inactive) | 7.85 | 31.2 µM (inactive) | 44.7 µM (inactive) | 16.3 µM (inactive) | 31.5 µM (inactive) | – | 37.8 µM (inactive) | > 100 µM (inactive) | 16.9 µM (inactive) | 15.9 µM (inactive) | 15.9 µM (inactive) | 21.9 µM (inactive) | 15 µM (inactive) | 47.3 µM (inactive) |
| Cc1cc([N+](=O)[O-])ccc1Nc1cccc(Cl)c1C | 16.1 µM (inactive) | – | 16.8 | 17.1 µM (inactive) | 18.3 µM (inactive) | 19.2 µM (inactive) | 15.1 µM (inactive) | 14.7 µM (inactive) | 18.9 µM (inactive) | 16.7 µM (inactive) | 15.5 µM (inactive) | 17.8 µM (inactive) | 17.7 µM (inactive) | 15.6 µM (inactive) | 17 µM (inactive) | 18 µM (inactive) |
| CCOC(=O)C(=Cc1cccnc1C)C(=O)OCC | 5.01 µM (inactive) | 6.15 µM (inactive) | 3.69 | 4.09 µM (inactive) | – | 3.13 µM (inactive) | 5.18 µM (inactive) | 3.61 µM (inactive) | 10.6 µM (inactive) | 17.5 µM (inactive) | 11.2 µM (inactive) | 11.9 µM (inactive) | 4.35 µM (inactive) | 11.8 µM (inactive) | 9.89 µM (inactive) | 8.09 µM (inactive) |
| COC(=O)C(=O)C(C#N)c1c(Cl)cccc1Cl (stereo unspecified) | > 100 µM (inactive) | > 100 µM (inactive) | > 100 | > 100 µM (inactive) | – | > 100 µM (inactive) | > 100 µM (inactive) | – | > 100 µM (inactive) | > 100 µM (inactive) | > 100 µM (inactive) | > 100 µM (inactive) | > 100 µM (inactive) | > 100 µM (inactive) | > 100 µM (inactive) | > 100 µM (inactive) |
| C[n+]1c2ccccc2c(/C=N\NS(=O)(=O)c2ccc(O)c(C(=O)O)c2)c2ccccc21 | 32.6 µM (inactive) | 63.4 µM (inactive) | 38.7 | 91.4 µM (inactive) | > 100 µM (inactive) | 34.2 µM (inactive) | 43.7 µM (inactive) | – | > 100 µM (inactive) | 61.7 µM (inactive) | 64.1 µM (inactive) | 80.2 µM (inactive) | 32.7 µM (inactive) | 39.8 µM (inactive) | 40.7 µM (inactive) | > 10 µM (inactive) |
| CCC(/C=C/c1ccccc1)=N\N=C(\C=C\c1ccccc1)CC | > 100 µM (inactive) | – | > 100 | > 100 µM (inactive) | > 100 µM (inactive) | > 100 µM (inactive) | > 100 µM (inactive) | > 100 µM (inactive) | > 100 µM (inactive) | > 100 µM (inactive) | > 100 µM (inactive) | > 100 µM (inactive) | – | > 100 µM (inactive) | > 100 µM (inactive) | > 100 µM (inactive) |
| O=C1C2Cc3ccccc3CN2C(=O)N1CCN1CCOCC1 (stereo unspecified) | – | > 100 µM (inactive) | > 100 | > 100 µM (inactive) | > 100 µM (inactive) | – | > 100 µM (inactive) | > 100 µM (inactive) | > 100 µM (inactive) | > 100 µM (inactive) | > 100 µM (inactive) | > 100 µM (inactive) | – | > 100 µM (inactive) | > 100 µM (inactive) | – |
| CN(C)CCCCC1CCN(CC(=O)N2c3ccccc3NC(=O)c3ccccc32)CC1 | > 100 µM (inactive) | > 100 µM (inactive) | – | > 100 µM (inactive) | > 100 µM (inactive) | > 100 µM (inactive) | > 100 µM (inactive) | > 100 µM (inactive) | > 100 µM (inactive) | > 100 µM (inactive) | 28.1 µM (inactive) | – | – | > 100 µM (inactive) | > 100 µM (inactive) | > 100 µM (inactive) |
